Calls of active or inactive are those of the source. The calls are words filed in the database; no cut-off is given here.

Test [1] deals with Carbonic anhydrase 2 (Homo sapiens, UniProt P00918).
Description: Inhibition of human recombinant carbonic anhydrase 2 pretreated for 15 mins by stopped flow CO2 hydrase assay
The target of test [2] is Carbonic anhydrase 12 (Homo sapiens, UniProt O43570).
Description: Inhibition of human recombinant carbonic anhydrase 12 pretreated for 15 mins by stopped flow CO2 hydrase assay
The target in test [3] is Carbonic anhydrase 14 (Homo sapiens, UniProt Q9ULX7).
Description: Inhibition of human recombinant carbonic anhydrase 14 pretreated for 15 mins by stopped flow CO2 hydrase assay
Test [4] deals with 72 kDa type IV collagenase (Homo sapiens, UniProt P08253).
Test [5] has as its target T1, Carbonic anhydrase 1 (Homo sapiens, UniProt P00915).
Target sequence in this assay (P00915 whole entry): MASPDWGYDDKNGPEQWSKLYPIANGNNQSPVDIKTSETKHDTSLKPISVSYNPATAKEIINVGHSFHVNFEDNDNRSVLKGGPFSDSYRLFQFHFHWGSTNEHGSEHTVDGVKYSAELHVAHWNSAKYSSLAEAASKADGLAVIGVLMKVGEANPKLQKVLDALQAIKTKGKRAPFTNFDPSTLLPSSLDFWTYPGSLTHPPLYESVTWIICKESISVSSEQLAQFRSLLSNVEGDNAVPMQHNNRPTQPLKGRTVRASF
Description: Inhibition of human recombinant carbonic anhydrase 1 pretreated for 15 mins by stopped flow CO2 hydrase assay
For test [6], the target named is Carbonic anhydrase 9 (Homo sapiens, UniProt Q16790).
Description: Inhibition of human recombinant carbonic anhydrase 9 pretreated for 15 mins by stopped flow CO2 hydrase assay
For test [7], the system named is J774. The test can be described thus: Cytotoxicity against mouse J774 cells assessed as reduction in cell viability. It counts as functional, cell-based.
For test [8], the target named is T1, Carbonic anhydrase 1. The test can be described thus: Activation of human recombinant carbonic anhydrase 1 pretreated for 15 mins by stopped flow CO2 hydrase assay.
Target sequence in this assay (P00915 2-261 limits assumed): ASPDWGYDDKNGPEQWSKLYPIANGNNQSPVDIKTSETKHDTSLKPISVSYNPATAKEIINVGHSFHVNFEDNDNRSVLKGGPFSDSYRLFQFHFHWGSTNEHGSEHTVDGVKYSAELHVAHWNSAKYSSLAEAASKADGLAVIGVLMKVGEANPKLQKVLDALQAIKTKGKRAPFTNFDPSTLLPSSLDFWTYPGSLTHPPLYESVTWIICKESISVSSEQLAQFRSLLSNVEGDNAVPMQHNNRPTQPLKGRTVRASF

Sequence of 72 kDa type IV collagenase (P08253 whole entry): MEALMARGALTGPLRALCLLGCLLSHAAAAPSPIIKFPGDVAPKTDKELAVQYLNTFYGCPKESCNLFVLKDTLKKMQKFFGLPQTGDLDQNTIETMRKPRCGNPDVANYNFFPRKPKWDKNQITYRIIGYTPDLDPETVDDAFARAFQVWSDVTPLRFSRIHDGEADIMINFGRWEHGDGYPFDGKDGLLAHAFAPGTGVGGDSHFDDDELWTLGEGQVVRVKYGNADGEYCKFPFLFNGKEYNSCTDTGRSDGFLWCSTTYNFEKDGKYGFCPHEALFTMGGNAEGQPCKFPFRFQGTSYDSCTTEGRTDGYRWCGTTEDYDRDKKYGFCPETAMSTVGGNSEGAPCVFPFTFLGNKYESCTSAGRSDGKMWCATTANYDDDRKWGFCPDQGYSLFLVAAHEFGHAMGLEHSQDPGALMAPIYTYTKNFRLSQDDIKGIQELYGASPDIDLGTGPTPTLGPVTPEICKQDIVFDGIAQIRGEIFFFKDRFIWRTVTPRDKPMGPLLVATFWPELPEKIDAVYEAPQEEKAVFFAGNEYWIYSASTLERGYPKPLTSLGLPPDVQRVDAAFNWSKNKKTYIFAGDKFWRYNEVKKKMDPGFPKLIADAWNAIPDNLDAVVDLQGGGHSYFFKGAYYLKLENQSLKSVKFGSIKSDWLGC
Sequence of Carbonic anhydrase 12 (O43570 whole entry): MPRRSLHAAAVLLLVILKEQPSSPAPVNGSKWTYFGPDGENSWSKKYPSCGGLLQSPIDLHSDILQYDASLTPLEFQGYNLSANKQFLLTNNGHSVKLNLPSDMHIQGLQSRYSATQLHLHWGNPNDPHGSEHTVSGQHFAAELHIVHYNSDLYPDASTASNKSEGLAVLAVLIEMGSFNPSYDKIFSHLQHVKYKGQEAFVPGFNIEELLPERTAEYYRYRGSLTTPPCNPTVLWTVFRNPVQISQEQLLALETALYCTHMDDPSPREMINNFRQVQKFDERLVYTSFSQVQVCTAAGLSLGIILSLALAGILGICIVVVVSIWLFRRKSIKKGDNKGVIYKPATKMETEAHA
Sequence of Carbonic anhydrase 14 (Q9ULX7 whole entry): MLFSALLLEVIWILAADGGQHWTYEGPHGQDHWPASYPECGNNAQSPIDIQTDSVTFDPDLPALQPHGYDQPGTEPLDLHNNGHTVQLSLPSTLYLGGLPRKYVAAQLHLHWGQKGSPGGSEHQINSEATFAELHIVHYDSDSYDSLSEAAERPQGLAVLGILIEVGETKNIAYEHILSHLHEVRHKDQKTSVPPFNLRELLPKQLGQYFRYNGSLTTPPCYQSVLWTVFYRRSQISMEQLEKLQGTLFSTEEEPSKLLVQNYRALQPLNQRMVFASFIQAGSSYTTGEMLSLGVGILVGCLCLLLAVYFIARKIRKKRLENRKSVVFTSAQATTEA

Turning to `O=P(O)(O)C(NS(=O)(=O)c1ccc(Cl)cc1)P(=O)(O)O`, the IC50 in test [1] is 6.16 µM; in test [2] it was 0.464 µM; in test [3], 6.59 µM; in test [4], 9.5 µM; in test [5], more than 10 µM; in test [6], 0.095 µM.
Regarding `O=P(O)(O)C(O)(Cn1ccnc1)P(=O)(O)O` [ZOLEDRONIC ACID], the half-maximal inhibitory concentration (IC50) was 7.8 µM in test [7] and more than 10 µM in test [5].
For the compound `O=P(O)(O)C(NS(=O)(=O)c1ccc(Br)cc1)P(=O)(O)O`, the half-inhibitory concentration (IC50) in test [1] is more than 10 µM; in test [2] it was 0.062 µM; in test [3], 0.898 µM; in test [4] it was 4.8 µM; in test [5], more than 10 µM; in test [6], 0.234 µM.
With `O=P(O)(O)C(NS(=O)(=O)c1ccccc1)P(=O)(O)O`, the IC50 in test [1] is more than 100 µM; in test [2], 0.855 µM; in test [3], 3.31 µM; in test [4], 15.8 µM; in test [5], more than 10 µM; in test [6], 0.397 µM.
For the compound `O=P(O)(O)C(NS(=O)(=O)c1ccc(-c2ccc(Cl)cc2)cc1)P(=O)(O)O`, the IC50 in test [1] worked out at 2.66 µM; in test [7], 1.7 µM; in test [2], 0.476 µM; in test [3], 2.44 µM; in test [4] it was 0.037 µM; in test [5], 1.75 µM. The IC50 in test [6] was 6.13 µM.
On to `O=P(O)(O)C(P(=O)(O)O)S(=O)(=O)c1ccc(Br)cc1`, for which the IC50 was more than 10 µM in test [1]; 0.225 µM in test [2]; 6.05 µM in test [3]; 52 µM in test [4]; more than 10 µM in test [5]; more than 10 µM in test [6].
For `COc1ccc(-c2ccc(S(=O)(=O)NC(P(=O)(O)O)P(=O)(O)O)cc2)cc1`, the IC50 in test [1] is 0.07 µM; in test [7] it was 12 µM; in test [2] it was 0.076 µM; in test [3], 0.07 µM; in test [4], 0.11 µM; in test [5], 0.041 µM. The IC50 in test [6] is 0.084 µM.
As for `O=[N+]([O-])c1ccc(-c2ccc(S(=O)(=O)NC(P(=O)(O)O)P(=O)(O)O)cc2)cc1`, the IC50 in test [1] was 0.071 µM; in test [7], 32 µM; in test [2] it was 0.065 µM; in test [3] it was 0.082 µM; in test [4] it was 0.192 µM; in test [5], 9.03 µM. Also, half-maximal inhibition in test [6] (IC50) was put at 0.596 µM.
`Cc1ccc(S(=O)(=O)NC(P(=O)(O)O)P(=O)(O)O)cc1`: the IC50 in test [1] is more than 100 µM; in test [2], 0.461 µM; in test [3], 0.541 µM; in test [4] it was 18 µM; in test [5], more than 10 µM; in test [6] it was 0.2 µM.
Consider `O=P(O)(O)CP(=O)(O)O` [MEDRONIC ACID], for which the IC50 is 1250 µM in test [1], 49 µM in test [4] and 860 µM in test [6]. Also, the result in test [8] was Active.
As to `O=[N+]([O-])c1cccc(S(=O)(=O)NC(P(=O)(O)O)P(=O)(O)O)c1`, the IC50 in test [1] was 3.82 µM; in test [2] it was 0.794 µM; in test [3], more than 10 µM; in test [4], 16 µM; in test [5], more than 10 µM; in test [6] it was 2.67 µM.
For the compound `O=P(O)(O)C(NS(=O)(=O)c1ccc(-c2cccs2)cc1)P(=O)(O)O`, the IC50 in test [1] amounted to 0.504 µM; in test [7], 12 µM; in test [2], 0.087 µM; in test [3] it was 0.593 µM; in test [4], 0.23 µM; in test [5], 6.17 µM. Half-maximal inhibition in test [6] (IC50) required 0.601 µM.
Take `O=[N+]([O-])c1ccc(S(=O)(=O)NC(P(=O)(O)O)P(=O)(O)O)cc1`: the IC50 in test [1] was 1.83 µM; in test [2], 0.092 µM; in test [3], 0.092 µM; in test [4] it was 4.9 µM; in test [5], more than 10 µM; in test [6], 0.078 µM.
For the compound `O=C(NC(P(=O)(O)O)P(=O)(O)O)c1ccc(Br)cc1`, the IC50 in test [1] was more than 10 µM; in test [2], 0.278 µM; in test [3], 6.05 µM; in test [4] it was 30 µM; in test [5], more than 10 µM; in test [6], more than 10 µM.
For the compound `COc1ccc(S(=O)(=O)NC(P(=O)(O)O)P(=O)(O)O)cc1`, the IC50 was more than 10 µM in test [1]; 0.376 µM in test [2]; 0.516 µM in test [3]; 19 µM in test [4]; more than 10 µM in test [5]; 0.09 µM in test [6].
With `O=P(O)(O)C(NS(=O)(=O)c1ccc(-c2ccccc2)cc1)P(=O)(O)O`, the IC50 in test [1] worked out at 1.41 µM; in test [7], 4.9 µM; in test [2], 0.386 µM; in test [3] it was 0.729 µM; in test [5], 6.8 µM; in test [6] it was 0.347 µM.
